The subject of one series is A549 cells. The series is described as follows: Cytotoxicity assay (AlamarBlue). The following applies: read-out: CC50 (μM), cytotoxic concentration 50%; A549 cell line, 48 h. The protocol:
Cytotoxicity Assay. The cytotoxicity of the compounds was analyzed by commercial kit AlamarBlue® (Invitrogen, Ref. DAL1025). A549 cells at a density of 5×10^3 cells per well in 96-well plates were seeded. […] Cells were then incubated at 37° C. for 48 h following the kit protocol. The cytotoxic concentration 50 (CC50) value was obtained using the statistical package GraphPad Prism. This assay was performed in duplicate.
In general terms: The colour change of resazurin is a common sign of viable cells or microbes.

In another series the test system is HAdV5-GFP. The series is described as follows: Plaque assay (inhibition of HAdV plaque formation). The format is cell-based, HAdV-5. As to conditions: for Selectivity index (SI): ratio of CC50 to IC50 in plaque assay; for inhibition at 10 µM: read-out: Plaque Assay (%) Inhibition (10 μM); for IC50: read-out: Plaque Assay IC50 (μM), HAdV5-GFP, low MOI, 293β5 cell line. Summed up: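 Cells at 80-90% confluency infected with HAdV5-GFP at 0.06 vp/cell, rocked 2 h at 37° C, then washed with PBS. Compounds tested at 10 μM and in dose-response from 10 to 0.3 μM, included in the post-infection mixture.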

The term inhibition denotes how much of the control response was suppressed. Usually IC50 stands for the point on the concentration scale where inhibition reaches its midpoint. Regarding `CCCCCCCCC(C)Nc1ccc(NC(=O)c2cc(Cl)ccc2O)c(Cl)c1` (stereo not drawn) [Compound 84, 5-Chloro-N-(2-chloro-4-(decan-2-ylamino)phenyl)-2-hydroxybenzamide], the CC50 in the series with A549 cells worked out at 21.9 ± 8.9 µM. Further, in the series on HAdV5-GFP, the “Selectivity index (SI)” value is 18.1, the inhibition at 10 µM stood at 100% and the IC50 is 1.21 ± 0.02 µM.

Take `O=C(Nc1ccc(NCC2CC2)cc1Cl)c1cc(Cl)ccc1O` [Compound 85, 5-Chloro-N-(2-chloro-4-((cyclopropylmethyl)amino)phenyl)-2-hydroxybenzamide]: the CC50 in the series with A549 cells stood at 14.4 µM. Moreover, in the series with HAdV5-GFP, the “Selectivity index (SI)” value came out at 10.4, the inhibition at 10 µM was found to be 100% and the IC50 came out at 1.38 µM.

Regarding `O=C(Nc1ccc(NCC2CCCC2)cc1Cl)c1cc(Cl)ccc1O` [Compound 86, 5-Chloro-N-(2-chloro-4-((cyclopentylmethyl)amino)phenyl)-2-hydroxybenzamide], the CC50 in the series with A549 cells stood at 21.5 µM. Further, in the series with HAdV5-GFP, the “Selectivity index (SI)” value was determined as 17.3, the inhibition at 10 µM stood at 100% and the IC50 came to 1.24 µM.

`O=C(Nc1ccc(NC2CCCCC2)cc1Cl)c1cc(Cl)ccc1O` [Compound 88, 5-Chloro-N-(2-chloro-4-(cyclohexylamino)phenyl)-2-hydroxybenzamide]: in the series with A549 cells, the CC50 amounted to 68.3 µM. Moreover, in the series with HAdV5-GFP, the “Selectivity index (SI)” value was 51.1, the inhibition at 10 µM turned out to be 99.5 ± 0.7% and the IC50 is 1.34 µM.

For `CN(C)c1ccc(NC(=O)c2cc(Cl)ccc2O)c(Cl)c1` [Compound 89, 5-Chloro-N-(2-chloro-4-(dimethylamino)phenyl)-2-hydroxybenzamide], in the series with A549 cells, the CC50 came to 85.1 ± 11.9 µM. Further, in the series with HAdV5-GFP, the “Selectivity index (SI)” value was determined as 44.3, the inhibition at 10 µM turned out to be 100% and the IC50 is 1.92 ± 0.23 µM.

For `CCN(CC)c1ccc(NC(=O)c2cc(Cl)ccc2O)c(Cl)c1` [Compound 90, 5-Chloro-N-(2-chloro-4-(diethylamino)phenyl)-2-hydroxybenzamide], the CC50 with A549 cells stood at 55.5 ± 10.2 µM. In the series with HAdV5-GFP, the “Selectivity index (SI)” value turned out to be 64.5, the inhibition at 10 µM stood at 100% and the IC50 amounted to 0.86 ± 0.19 µM.

With `CCCN(CCC)c1ccc(NC(=O)c2cc(Cl)ccc2O)c(Cl)c1` [Compound 91, 5-Chloro-N-(2-chloro-4-(dipropylamino)phenyl)-2-hydroxybenzamide], the CC50 in the series on A549 cells was found to be 10.7 ± 2.1 µM. In the series with HAdV5-GFP, the “Selectivity index (SI)” value is recorded as 16.0, the inhibition at 10 µM was 100% and the IC50 came out at 0.67 ± 0.03 µM.

In the case of `O=C(Nc1ccc(N(CC2CC2)CC2CC2)cc1Cl)c1cc(Cl)ccc1O` [Compound 92, N-(4-(Bis(cyclopropylmethyl)amino)-2-chlorophenyl)-5-chloro-2-hydroxybenzamide], in the series with A549 cells, the CC50 is 12.8 ± 4.2 µM. In the series with HAdV5-GFP, the “Selectivity index (SI)” value worked out at 20.7, the inhibition at 10 µM came out at 100% and the 50% inhibitory concentration (IC50) was 0.62 ± 0.01 µM.

`CC1(ON(c2ccc(NC(=O)c3cc(Cl)ccc3O)c(Cl)c2)C2(C)CCCC2)CCCC1` [Compound 93, 5-Chloro-N-(2-chloro-4-((1-methylcyclopentyl)((1-methylcyclopentyl)oxy)amino)phenyl)-2-hydroxybenzamide]: the CC50 in the series with A549 cells was 18 µM. In the series on HAdV5-GFP, the “Selectivity index (SI)” value came to 24.3, the inhibition at 10 µM is 100% and the IC50 worked out at 0.74 µM.

As for `O=C(Nc1ccc(NCc2ccccc2)cc1Cl)c1cc(Cl)ccc1O` [Compound 94, N-(4-(Benzylamino)-2-chlorophenyl)-5-chloro-2-hydroxybenzamide], the CC50 in the series with A549 cells worked out at 19.7 ± 2.8 µM. In addition, in the series on HAdV5-GFP, the “Selectivity index (SI)” value worked out at 7.8, the inhibition at 10 µM amounted to 100% and the IC50 is 2.52 ± 0.01 µM.

With `O=C(Nc1ccc(NCc2ccc(F)cc2)cc1Cl)c1cc(Cl)ccc1O` [Compound 95, 5-Chloro-N-(2-chloro-4-((4-fluorobenzyl)amino)phenyl)-2-hydroxybenzamide], in the series on A549 cells, the CC50 is 54.4 ± 12.3 µM. In addition, in the series with HAdV5-GFP, the “Selectivity index (SI)” value came to 16.0, the inhibition at 10 µM was found to be 100% and the IC50 came to 3.4 ± 0.54 µM.

On to `O=C(Nc1ccc(NCc2ccc(Cl)cc2)cc1Cl)c1cc(Cl)ccc1O` [Compound 96, 5-Chloro-N-(2-chloro-4-((4-chlorobenzyl)amino)phenyl)-2-hydroxybenzamide], for which the CC50 in the series on A549 cells turned out to be 59.7 ± 0.3 µM. Also, in the series on HAdV5-GFP, the “Selectivity index (SI)” value was found to be 49.7, the inhibition at 10 µM is 100% and the IC50 is 1.2 ± 0.01 µM.

For the compound `O=C(Nc1ccc(NCc2ccc(Br)cc2)cc1Cl)c1cc(Cl)ccc1O` [Compound 97, N-(4-((4-Bromobenzyl)amino)-2-chlorophenyl)-5-chloro-2-hydroxybenzamide], the CC50 in the series on A549 cells was 40.9 ± 2.2 µM. Besides, in the series on HAdV5-GFP, the “Selectivity index (SI)” value is on record as 22.2, the inhibition at 10 µM is 100% and the IC50 was 1.84 ± 0.1 µM.

As to `O=C(Nc1ccc(NCc2ccc(C(F)(F)F)cc2)cc1Cl)c1cc(Cl)ccc1O` [Compound 98, 5-Chloro-N-(2-chloro-4-((4-(trifluoromethyl)benzyl)amino)phenyl)-2-hydroxybenzamide], the CC50 with A549 cells stood at 62.7 ± 6.1 µM. In addition, in the series on HAdV5-GFP, the “Selectivity index (SI)” value is given as 43.8, the inhibition at 10 µM stood at 99.6 ± 0.6% and the concentration for half-maximal inhibition (IC50) was 1.43 ± 0.29 µM.

Turning to `O=C(Nc1ccc(NCc2cccc(C(F)(F)F)c2)cc1Cl)c1cc(Cl)ccc1O` [Compound 99, 5-Chloro-N-(2-chloro-4-((3-(trifluoromethyl)benzyl)amino)phenyl)-2-hydroxybenzamide], the CC50 with A549 cells came out at 13.3 ± 6.9 µM. In addition, in the series with HAdV5-GFP, the “Selectivity index (SI)” value is recorded as 15.2, the inhibition at 10 µM worked out at 100% and the IC50 is 0.88 ± 0.4 µM.

As for `COc1ccc(CNc2ccc(NC(=O)c3cc(Cl)ccc3O)c(Cl)c2)cc1` [Compound 100, 5-Chloro-N-(2-chloro-4-((4-methoxybenzyl)amino)phenyl)-2-hydroxybenzamide], in the series with A549 cells, the CC50 worked out at 80.7 ± 8.2 µM. Besides, in the series on HAdV5-GFP, the “Selectivity index (SI)” value turned out to be 22.4, the inhibition at 10 µM is 100% and the IC50 amounted to 3.61 ± 0.4 µM.

Regarding `CN(C)c1ccc(CNc2ccc(NC(=O)c3cc(Cl)ccc3O)c(Cl)c2)cc1` [Compound 102, 5-Chloro-N-(2-chloro-4-((4-(dimethylamino)benzyl)amino)phenyl)-2-hydroxybenzamide], the CC50 with A549 cells was 24.5 ± 3.5 µM. In addition, in the series with HAdV5-GFP, the “Selectivity index (SI)” value worked out at 9.0, the inhibition at 10 µM is 100% and the IC50 was found to be 2.73 ± 0.26 µM.

Take `O=C(Nc1ccc(NCc2cc(F)cc(Cl)c2)cc1Cl)c1cc(Cl)ccc1O` [Compound 103, 5-Chloro-N-(2-chloro-4-((3-chloro-5-fluorobenzyl)amino)phenyl)-2-hydroxybenzamide]: the CC50 with A549 cells turned out to be 11.1 ± 0.7 µM. Moreover, in the series on HAdV5-GFP, the “Selectivity index (SI)” value stood at 8.7, the inhibition at 10 µM is 98.8 ± 0.6% and the IC50 was found to be 1.28 ± 0.02 µM.

With `O=C(Nc1ccc(NCc2cc(Cl)cc(Cl)c2)cc1Cl)c1cc(Cl)ccc1O` [Compound 104, 5-Chloro-N-(2-chloro-4-((3,5-dichlorobenzyl)amino)phenyl)-2-hydroxybenzamide], the CC50 in the series with A549 cells amounted to 13.3 ± 7.6 µM. In the series on HAdV5-GFP, the “Selectivity index (SI)” value is reported as 9.3, the inhibition at 10 µM is 100% and the IC50 stood at 1.43 ± 0.17 µM.

As for `O=C(Nc1ccc(NCc2cc(Cl)cc(C(F)(F)F)c2)cc1Cl)c1cc(Cl)ccc1O` [Compound 105, 5-Chloro-N-(2-chloro-4-((3-chloro-5-(trifluoromethyl)benzyl)amino)phenyl)-2-hydroxybenzamide], the CC50 in the series on A549 cells is 30.9 ± 0.8 µM. Further, in the series with HAdV5-GFP, the “Selectivity index (SI)” value is recorded as 17.3, the inhibition at 10 µM amounted to 99.3 ± 1% and the IC50 came to 1.79 ± 0.16 µM.

Regarding `O=C(Nc1ccc(NCc2cc(F)cc(C(F)(F)F)c2)cc1Cl)c1cc(Cl)ccc1O` [Compound 106, 5-Chloro-N-(2-chloro-4-((3-fluoro-5-(trifluoromethyl)benzyl)amino)phenyl)-2-hydroxybenzamide], the CC50 in the series with A549 cells came to 30.9 ± 4.8 µM. In the series on HAdV5-GFP, the “Selectivity index (SI)” value came out at 26.7, the inhibition at 10 µM came to 100% and the half-maximal inhibitory concentration (IC50) came to 1.16 ± 0.13 µM.

`O=C(Nc1ccc(NCc2cc(C(F)(F)F)cc(C(F)(F)F)c2)cc1Cl)c1cc(Cl)ccc1O` [Compound 107, N-(4-((3,5-Bis(trifluoromethyl)benzyl)amino)-2-chlorophenyl)-5-chloro-2-hydroxybenzamide]: the CC50 with A549 cells is 92.8 µM. Besides, in the series with HAdV5-GFP, the “Selectivity index (SI)” value is 82.9, the inhibition at 10 µM worked out at 100% and the IC50 came to 1.12 ± 0.49 µM.

As to `O=C(Nc1ccc(NCc2ccc(Br)s2)cc1Cl)c1cc(Cl)ccc1O` [Compound 113, N-(4-(((5-Bromothiophen-2-yl)methyl)amino)-2-chlorophenyl)-5-chloro-2-hydroxybenzamide], the CC50 with A549 cells is 20.7 ± 4.6 µM. For the same compound, in the series on HAdV5-GFP, the “Selectivity index (SI)” value amounted to 8.0, the inhibition at 10 µM is 100% and the IC50 was 2.58 µM.

With `O=C(Nc1ccc(NCc2ccc3cn[nH]c3c2)cc1Cl)c1cc(Cl)ccc1O` [Compound 114, N-(4-(((1H-Indazol-6-yl)methyl)amino)-2-chlorophenyl)-5-chloro-2-hydroxybenzamide], the CC50 with A549 cells was 45.3 ± 0.4 µM. In the series on HAdV5-GFP, the “Selectivity index (SI)” value turned out to be 9.7, the inhibition at 10 µM was 98 ± 0.7% and the IC50 stood at 4.65 µM.

In the case of `O=C(Nc1ccc(NCCCO)cc1Cl)c1cc(Cl)ccc1O` [Compound 120, 5-Chloro-N-(2-chloro-4-((3-hydroxypropyl)amino)phenyl)-2-hydroxybenzamide], in the series on A549 cells, the CC50 came out at 106 µM. For the same compound, the inhibition at 10 µM in the series with HAdV5-GFP was found to be 36 ± 4.2%. Also, in the series with HAdV5-GFP ({}), the “Plaque Assay (%) Inhibition (10 μM)” value is “inactive”.

The values above are taken from patent US20230140290A1, “SALICYLAMIDE DERIVATIVES AND RELATED METHODS OF MAKING” (THE BOARD OF REGENTS OF THE UNIVERSITY OF TEXAS SY, priority 2020, published 2023).
